Measured values: patent US4675319A, “Antianaphylactic and antibronchospastic piperazinyl-(N-substituted phenyl)carboxamides, compositions and use” (Recordati S. A. Chemical and Pharmaceutical Company, priority 1985, dated 1987)
Counter-ions that a name gives are not always drawn. Like-named read-outs stand apart in the source and are kept apart here.

What was measured:
[1] = Acute toxicity LD50 in the mouse (method of Weil); conditions: in vivo
Description: (§1) The novel compounds of the present invention are characterized by high antianaphylactic and antibronchospastic activity and by a low toxicity. The LD50 of the novel piperazine derivatives has been determined in the mouse, both ip and per os, following the method described by C. S. Weil, Biometrics, 8, 249 (1952). In order to evaluate the antianaphylactic activity of said novel compounds, the method of Goose and Blair was followed, in which passive cutaneous anaphylaxis (PCA) was induced in the rat with homologous antibodies [Immunology, 16, 749, (1969)].
(§2) In the Table which follows, the results obtained utilizing the above tests are reported. The LD50 and the DE50 in the PCA test are expressed in […]. The DE50 for the antibronchospastic activity (BSP) is expressed in μm/kg i.v. (bronchospasm induced by histamine (H) and acetylcholine (A)). In the TXA2 test, (C) is the concentration in μg/ml, whereas (I%) denotes the maximal inhibition percentage. In the PLA test, the DE50 is expressed in μM/kg i.v. (evaluated 5 and 10 minutes after administration).

[2] = system: bronchospasm induced by histamine; assay: Inhibition of bronchospasm (BSP) induced by histamine in anaesthetized guinea pig (Konzett and Roessler); assay type: in vivo; conditions: Cavia porcellus, iv, 1 min, histamine 0.5-25 μg/kg i.v., one minute after injection of drug, read-out: BSP, ED50 H
Experimental: (§3) The antibronchospastic activity was determined according to the method of Konzett and Roessler, Arch., Exp. Path. Pharmakol., 195, 71 (1940), entailing the inhibition of bronchospasm induced in anaesthesized guinea pig by histamine and acetylcholine. For this purpose, the bronchospasms were induced by administering intravenously to the animals 0.5-25 μg/kg of hystamine or 2.5-10 μg/kg of acetylcholine. Inhibition (ED50) was determined one minute after injection of the drug under test.
as §2

[3] = system: passive cutaneous anaphylaxis (PCA); assay: Passive cutaneous anaphylaxis (PCA) in the rat with homologous antibodies (method of Goose and Blair); assay type: in vivo; conditions: 0.5 h, inhibition of spots areas, 30 minutes after challenge
Description: as §1
Female albino rate were immunized intramuscularly with egg albumin and intraperitoneally with Haemophylus pertussis vaccine. Twelve days after treatment, the animals were bled and sera thus obtained were injected intradermally into another group of rats. Twenty-four hours later, the animals were challenged with an i.v. solution of ovoalbumin and Evans blue dye, and sacrificed after 30 minutes. The test drugs were given by different routes of administration and at different times before the challenge. Inhibition of spots areas (ED50) was determined.
as §2

[4] = system: passive lung anaphylaxis (PLA); assay: Passive lung anaphylaxis (PLA): antigen induced bronchoconstriction in passively sensitized rat (method of Greenberg et al); assay type: in vivo; conditions: iv, i.v.
Experimental: Inhibition of passive lung anaphylaxis (PLA) was studied in a model of antigen induced bronchoconstriction in sensitized rat, according to the method described by Greenberg et al, Can. J. Physiol. Pharmacol., 57, 48 (1979). Female albino rate were passively sensitized by intravenous injection of homologous anti-egg albumin serum. Twenty-four hours later the rats were anaesthetized with pentobarbital (35 mg/kg i.p.) and spontaneous respiration was arrested by administration of tubocurarine (0.75 mg/kg i.v.).
Bronchocostriction was induced by egg albumin intravenously administered and measured by the Konzett and Roessler method Arch. Exp. Path. Pharmakol., 195, 71, (1940). The compounds were injected intravenously one minute before antigen challenge. The inhibitory effect (ED50) was evaluated 5 and 10 minutes after i.v. administration of the drugs under test.
as §2

[5] = system: bronchospasm induced by acetylcholine; assay: Inhibition of bronchospasm (BSP) induced by acetylcholine in anaesthetized guinea pig (Konzett and Roessler); assay type: in vivo; conditions: Cavia porcellus, iv, 1 min, acetylcholine 2.5-10 μg/kg i.v., one minute after injection of drug
Experimental: as §3, §2

TXA2 = TXA2 inhibition in perfused guinea-pig lungs challenged with bradykinin (method of Berti et al); conditions: C = 10 μg/ml, bradykinin 0.25-0.5 μg
Experimental: The TXA2 inhibition was evaluated according to the method of Berti et al Brit. J. Pharmacol., 68, 467 (1980). Lungs from female or male guinea-pigs were perfused through the pulmonary artery with Krebs bicarbonate (5 ml/min, 37° C.). The pulmonary outflow superfused strips of rabbit mesenteric artery and rabbit aorta in cascade, in order to monitor TXA2 activity. These tissues were superfused with a mixture of receptor antagonist and indomethacin to […] their selectivity and sensitivity. Lungs were challenged with a single injection of bradykinin (0.25-0.5 μg) which is known to increase generation of TXA2 from the pulmonary tissue. The novel compounds of the invention were perfused at different concentrations through the lungs 30 and 60 minutes before agonists.
as §2

[6] = 5 min, evaluated 5 minutes after administration, read-out: PLA, ED50 5'
[7] = 10 min, evaluated 10 minutes after administration, read-out: PLA, ED50 10'

| Structure (SMILES) | LD50 ([1]; po, per os, read-out: LD50 os) [µmol/kg] | ED50 [2] [µmol/kg] | ED50 [3] [µmol/kg] | LD50 ([1]; ip, read-out: LD50 ip) [µmol/kg] | ED50 [4, 6] [µmol/kg] | ED50 [4, 7] [µmol/kg] | ED50 [5] [µmol/kg] | TXA2 I % (maximal inhibition percentage) (TXA2) [%] |
| --- | --- | --- | --- | --- | --- | --- | --- | --- |
| Nc1ccc(NC(=O)CCN2CCN(C(c3ccccc3)c3ccccc3)CC2)cc1 [Compound 5, 3-(4-benzhydryl-1-piperazinyl)-N,4-aminophenylpropionamide] | 7200 | 0.23 | 28 | – | – | – | – | – |
| CN(C)c1cccc(NC(=O)CCN2CCN(C(c3ccccc3)c3ccccc3)CC2)c1 [Compound 2, 3-(4-benzhydryl-1-piperazinyl)-N,3-dimethylaminoophenylpropionamide trihydrochloride hemihydrate] | 340 | – | > 69 | 260 | – | – | – | – |
| Nc1cccc(NC(=O)CCN2CCN(C(c3ccccc3)c3ccccc3)CC2)c1 [Compound 4, 3-(4-benzhydryl-1-piperazinyl)-N,3-aminophenylpropionamide] | 5000 | 0.21 | 8 | – | 0.04 | 0.08 | 0.4 | 47 |
| CNC(=O)Nc1ccc(NC(=O)CCN2CCN(C(c3ccccc3)c3ccccc3)CC2)cc1 [Compound 7, 3-(4-benzhydryl-1-piperazinyl)-N,4-methylureidophenylpropionamide] | > 5900 | – | 73 | 1750 | – | – | – | – |
| CN(C(=O)CCN1CCN(C(c2ccccc2)c2ccccc2)CC1)c1cccc(N)c1 [Compound 6, 3-(4-benzhydryl-1-piperazinyl)-N,3-aminophenvl-N-methylpropionamide] | > 7000 | 0.12 | 10 | > 2330 | 0.65 | 0.69 | 0.4 | 0.8 |
| CN(C)c1ccc(NC(=O)CCN2CCN(C(c3ccccc3)c3ccccc3)CC2)cc1 [Compound 3, 3-(4-benzhydryl-1-piperazinyl)-N,4-dimethylaminophenylpropionamide] | > 7000 | 1.1 | 25 | – | 0.02 | 0.02 | 0.8 | – |
| CNc1cccc(NC(=O)CCN2CCN(C(c3ccccc3)c3ccccc3)CC2)c1 [Compound 1, 3-(4-benzhydryl-1-piperazinyl)-N,3-methylaminophenylpropionamide] | 580 | 0.25 | 13 | 240 | – | – | – | – |
| CN(C)c1ccc(NC(=O)CCCN2CCN(C(c3ccccc3)c3ccccc3)CC2)cc1 [Compound 8] | 430 | 1.1 | 10 | 230 | 0.84 | 0.84 | > 3 | – |
